Consider one molecule from patent US20250073248A1, “BIORESORBABLE CATIONIC STEROIDAL ANTIMICROBIAL COMPOUNDS WITH GLYCERIDE LINKAGES” (BRIGHAM YOUNG UNIVERSITY, priority 2023, published 2025).

A word on the MBC: it is the smallest concentration meeting the test's criterion for killing. The MIC is the lowest concentration found to suppress growth.

One assay has as its system MRSA ATCC BAA-42. Nature of the assay: MIC/MBC of CSA-4110, Gram positive bacteria (Table 2). The class given is cell-based. As to conditions: Staphylococcus aureus. On the procedure:
(§1) All compounds were screened against these pathogens to determine their minimum inhibitory concentration (MIC), minimum bactericidal concentration (MBC), and minimum fungicidal concentration (MFC) using a broth microdilution method. […] Of these three, only CSA-4110 was similarly active against PA01and CA, inhibiting growth at 8 μg/mL.
(§2) CSA-4110 was evaluated further against a broader range of bacterial and fungal strains. Acinetobacter baumannii and several isolates of Staphylococcus aureus, Klebsiella pneumoniae, and Candida auris were selected, further broadening the coverage of high and critical priority pathogens. Streptococcus uberis, Staphylococcus pseudintermedius, Proteus mirabilis, and Escherichia coli were also screened to obtain a more complete efficacy profile. […] For comparison, previous work established the MICs of CSA-131 against strains of Staphylococcus aureus, Pseudomonas aeruginosa, and Candida albicans at 0.5-2 μg/mL

For the next assay, the system named is S. uberis ATCC 27958. The description is as above. It is filed as cell-based. As to conditions: Streptococcus uberis, ATCC27958. On the procedure: as §1, §2

Take `CCCCCCCCCC(=O)OCC(O)COC(=O)CC[C@@H](C)[C@H]1CC[C@H]2[C@@H]3[C@H](OC(=O)CCN)C[C@@H]4C[C@H](OC(=O)CCN)CC[C@]4(C)[C@H]3C[C@H](OC(=O)CCN)[C@]12C` (stereo partly shown) [CSA-4110]: in the assay with MRSA ATCC BAA-42, the MBC was found to be 2 µg/mL and the MIC stood at 2 µg/mL. Moreover, in the assay on S. uberis ATCC 27958, the MBC is 4 µg/mL and the MIC turned out to be 2 µg/mL.
